In PubChem BioAssay (NCI):
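In this assay, cells in 96-well plates receive the compound at five concentrations for 48 hours. Endpoints are linearly interpolated between the surrounding concentrations. TGI: total growth inhibition.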

Columns and labels:
Experiment in all cases: DTP human tumour cell line panel, 48 h
[1] = tested on: 786-0 renal
[2] = tested on: A498 renal
[3] = tested on: A549 NSCLC
[4] = tested on: ACHN renal
[5] = tested on: BT-549 breast
[6] = tested on: CAKI-1 renal
[7] = tested on: COLO 205 colon
[8] = tested on: DU-145 prostate
[9] = tested on: EKVX NSCLC
[10] = tested on: HCC-2998 colon
[11] = tested on: HCT-116 colon
[12] = tested on: HCT-15 colon
[13] = tested on: HL-60(TB) leukemia
[14] = tested on: HOP-62 NSCLC
[15] = tested on: HOP-92 NSCLC
[16] = tested on: HS 578T breast
[17] = tested on: HT29 colon
[18] = tested on: IGROV1 ovarian
[19] = tested on: K-562 leukemia
[20] = tested on: KM12 colon
[21] = tested on: LOX IMVI melanoma
[22] = tested on: M14 melanoma
[23] = tested on: MALME-3M melanoma
[24] = tested on: MCF7 breast
[25] = tested on: MDA-MB-231 breast
[26] = tested on: MDA-MB-435
[27] = tested on: MDA-N
[28] = tested on: MOLT-4 leukemia
[29] = tested on: NCI-H226 lung
[30] = tested on: NCI-H460 lung
[31] = tested on: NCI-H522 lung
[32] = tested on: NCI/ADR-RES ovarian
[33] = tested on: OVCAR-3 ovarian
[34] = tested on: OVCAR-4 ovarian
[35] = tested on: OVCAR-8 ovarian
[36] = tested on: PC-3 prostate
[37] = tested on: RPMI-8226 leukemia
[38] = tested on: RXF 393 renal
[39] = tested on: SF-268 CNS
[40] = tested on: SF-295 CNS
[41] = tested on: SF-539 CNS
[42] = tested on: SK-MEL-2 melanoma
[43] = tested on: SK-MEL-28 melanoma
[44] = tested on: SK-MEL-5 melanoma
[45] = tested on: SK-OV-3 ovarian
[46] = tested on: SN12C renal
[47] = tested on: SNB-19 CNS
[48] = tested on: SNB-75 CNS
[49] = tested on: SR leukemia
[50] = tested on: SW-620 colon
[51] = tested on: T-47D breast
[52] = tested on: TK-10 renal
[53] = tested on: U251 CNS
[54] = tested on: UACC-257 melanoma
[55] = tested on: UACC-62 melanoma
[56] = tested on: UO-31 renal
[57] = tested on: CCRF-CEM leukemia
[58] = tested on: NCI-H23 lung
[59] = tested on: OVCAR-5 ovarian

Measured: TGI

FC(F)(F)c1ccc2c(c1)nc(-c1ccccc1)n2CC1CCCN2CCCCC12 (centres undefined)
30.7 µM: [1]
34.9 µM: [5]
28.7 µM: [31]
31 µM: [41]
42.3 µM: [26]
31.9 µM: [22]
1.16 µM: [56]
65.9 µM: [29]
64 µM: [12]
40.1 µM: [33]
31.7 µM: [40]
39.3 µM: [30]
65.8 µM: [15]
29.3 µM: [42]
33.9 µM: [16]
36.2 µM: [27]
50.4 µM: [18]
37.3 µM: [45]
29.4 µM: [25]
71.7 µM: [51]
56.5 µM: [4]
31.8 µM: [54]
58.3 µM: [19]
30.6 µM: [11]
38.8 µM: [24]
28.1 µM: [44]
33.5 µM: [39]
29.1 µM: [21]
75.5 µM: [38]
38.5 µM: [17]
33.8 µM: [13]
50.8 µM: [48]
27.2 µM: [23]
35.3 µM: [43]
66.5 µM: [20]
34.1 µM: [36]
41.8 µM: [52]
49.2 µM: [49]
31.2 µM: [55]
45.5 µM: [46]
34.3 µM: [32]
37.9 µM: [35]
69.9 µM: [50]
69.1 µM: [2]
56.2 µM: [53]
26.3 µM: [7]
32.3 µM: [10]
not listed: [57] | [58] | [59]
> 100 µM: all other assays above

CCCCCCCCCCCCCCCCOCC(Cl)CP(=O)(O)OP(=O)(O)OCC1OC(n2cnc3c(N)ncnc32)C(O)C1O (centres undefined)
not listed: [37] | [40]
> 100 µM: all other assays above

CC(C)(C)OC(=O)NCC(=O)NC1CC=CCC1NC(=O)CNC(=O)OC(C)(C)C (centres undefined)
not listed: [9] | [22] | [42]
> 100 µM: all other assays above
